Patent US7084253B2, “Protease-activated receptor PAR4 (ZCHEMR2)” (ZymoGenetics, Inc., priority 1998, dated 2006)
Entries after “also recorded” stand apart in the source; their conditions may differ. Read-outs that look alike come from different tables or passages of the source. Values belong to the molecule of their own block, whether it stands above or below them. No end group written: not given here.

Columns and labels:
PAR4 = biological target: T1, PAR4 (Homo sapiens, UniProt Q96RI0, A120T); assay: phosphoinositide hydrolysis assay in COS cells transiently transfected with PAR4 cDNA; type: cell-based; details: for activity against PAR4 (other proteases): concentration not given; for response of PAR4-transfected COS cells (phosphatidylinositol 4,5 diphosphate hydrolysis): protease at 100 nM
T1 construct: expressed in transfected cells; host or cells: COS-7
T1 sequence (Q96RI0 18-385 A120T): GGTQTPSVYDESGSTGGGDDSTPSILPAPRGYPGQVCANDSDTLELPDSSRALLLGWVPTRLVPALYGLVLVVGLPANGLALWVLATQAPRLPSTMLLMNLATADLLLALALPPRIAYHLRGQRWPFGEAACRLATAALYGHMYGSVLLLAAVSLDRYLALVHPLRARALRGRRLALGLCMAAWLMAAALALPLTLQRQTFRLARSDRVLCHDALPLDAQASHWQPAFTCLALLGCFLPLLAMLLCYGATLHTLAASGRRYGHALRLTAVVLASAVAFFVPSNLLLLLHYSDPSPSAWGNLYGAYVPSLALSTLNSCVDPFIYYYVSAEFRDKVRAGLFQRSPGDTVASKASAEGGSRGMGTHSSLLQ
Description: (§1) COS cells were transiently transfected with PAR4 cDNA, and examined for responses to thrombin and trypsin. Briefly, for the phosphoinositide hydrolysis assay, COS-7 cells were grown in Dulbecco's modified Eagle's medium (DMEM; Gibco/BRL, Gaithersburg, Md.) with 10% fetal bovine serum (FBS). Cells were plated at 3.5×10^5/35-mm plate one day before transfection. Two μg of DNA were transfected using 12 μl of lipofectAMINE (Gibco/BRL) for 5 h. The cells were incubated overnight in DMEM with 10% FBS, and then split into triplicate 35-mm wells. Forty-eight hours after transfection, the cells were loaded with 2 μCi/ml [^3H]myo-inositol (Amersham, Arlington Heights, Ill.) in serum-free DMEM and incubated overnight at 37° C. Cells were washed and treated with 20 mM LiCl in DMEM, with or without protease or peptide activators added at various concentrations. Cells were then incubated for 2 h at 37° C. and extracted with 750 μl of 20 mM formic acid for 30 min on ice. The inositol mono-, bis-, and trisphosphates were purified through a one ml AG 1-X8 anion-exchange resin (Bio-Rad, Hercules, Calif.) (T. Nanevicz et al., J. Biol. Chem. 271:702–06, 1996), and quantitated by scintillation counting. In each hydrolysis assay, surface expression levels of receptors were determined in triplicate in parallel cultures.

PAR1 = biological target: T2, PAR1 (Homo sapiens, UniProt P25116); assay: thrombin-stimulated phosphoinositide hydrolysis, PAR1 (comparison); type: cell-based; details: comparison with PAR4; read-out: half-maximal concentration (EC50) for PAR1
T2 construct: expressed in transfected cells; COS-7 inferred from the assay of b141
T2 sequence (P25116 22-425): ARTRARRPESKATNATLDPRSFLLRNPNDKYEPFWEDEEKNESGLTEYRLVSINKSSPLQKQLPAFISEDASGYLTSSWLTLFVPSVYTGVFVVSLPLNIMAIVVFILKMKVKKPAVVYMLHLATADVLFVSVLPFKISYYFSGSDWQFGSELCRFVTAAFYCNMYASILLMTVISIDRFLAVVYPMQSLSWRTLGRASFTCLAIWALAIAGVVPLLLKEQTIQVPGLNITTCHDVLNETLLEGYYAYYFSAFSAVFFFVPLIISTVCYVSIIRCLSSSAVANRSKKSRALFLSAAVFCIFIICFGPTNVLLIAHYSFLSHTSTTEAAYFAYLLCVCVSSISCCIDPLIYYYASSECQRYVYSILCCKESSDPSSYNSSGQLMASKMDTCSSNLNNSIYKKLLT
Description: For comparative purposes, PAR1 protein was prepared. Briefly, the cDNA coding for PAR1 was isolated from a placental cDNA library by PCR. The PAR1 DNA sequence obtained was essentially identical to that previously reported, except for nucleotides 711–712 (CG→GC) and nucleotides 1091–1092 (CG→GC). […] These amino acid changes were confirmed by sequence analysis of the corresponding regions in the genomic DNA coding for PAR1.
as §1, with “Forty-eight hours after transfection, the cells were loaded with 2 μCi/ml [^3H]myo-inositol (Amersham, Arlington Heights, Ill.) in serum-free DMEM and incubated overnight at 37° C. Cells were washed and treated with 20 mM LiCl in DMEM, with or without protease or peptide activators added at various concentrations. Cells were then incubated for 2 h at 37° C. and extracted with 750 μl of 20 mM formic acid for 30 min on ice.” left out

PAR4 (R47A) = biological target: T3, PAR4 (R47A) (Homo sapiens, UniProt Q96RI0, A120T/R47A); assay: phosphoinositide hydrolysis in COS cells expressing cleavage site mutant PAR4 (R47A); type: cell-based; details: Ala for Arg at residue 47
T3 construct: expressed in transfected cells; host or cells: COS cells
T3 sequence (Q96RI0 18-385 R47A/A120T): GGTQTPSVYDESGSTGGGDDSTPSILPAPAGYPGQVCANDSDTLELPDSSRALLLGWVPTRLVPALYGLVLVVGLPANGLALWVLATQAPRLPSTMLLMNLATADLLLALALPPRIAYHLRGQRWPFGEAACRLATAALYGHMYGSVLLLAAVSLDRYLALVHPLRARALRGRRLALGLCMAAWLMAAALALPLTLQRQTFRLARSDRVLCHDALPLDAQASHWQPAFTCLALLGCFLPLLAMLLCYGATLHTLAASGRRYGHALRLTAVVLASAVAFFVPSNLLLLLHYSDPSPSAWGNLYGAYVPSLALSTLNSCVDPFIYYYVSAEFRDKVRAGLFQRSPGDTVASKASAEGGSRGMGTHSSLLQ
Description: as §1, with “cultures. […]” for “cultures.”

PAR4 (R68A) = biological target: T4, PAR4 (R68A) (Homo sapiens, UniProt Q96RI0, A120T/R68A); assay: phosphatidylinositol 4,5 diphosphate hydrolysis assay in COS cells expressing PAR4 mutant R68A; type: cell-based; details: Arg 68 to Ala, extracellular amino-terminal region
T4 construct: expressed in transfected cells; host or cells: COS cells (inferred from the R47A sentence of the same paragraph)
T4 sequence (Q96RI0 18-385 R68A/A120T): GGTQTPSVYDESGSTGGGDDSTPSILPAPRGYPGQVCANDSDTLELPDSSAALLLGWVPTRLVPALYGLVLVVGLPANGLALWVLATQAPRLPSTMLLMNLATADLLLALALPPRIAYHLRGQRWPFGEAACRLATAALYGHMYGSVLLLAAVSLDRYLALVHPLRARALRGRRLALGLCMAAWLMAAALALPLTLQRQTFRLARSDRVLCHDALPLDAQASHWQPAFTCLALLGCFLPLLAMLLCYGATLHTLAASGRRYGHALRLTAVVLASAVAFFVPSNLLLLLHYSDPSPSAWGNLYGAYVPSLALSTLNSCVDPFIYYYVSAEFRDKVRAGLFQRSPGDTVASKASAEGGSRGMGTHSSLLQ
Description: as §1, with “cultures. […]” for “cultures.”

PAR3 = biological target: T5, PAR3 (Homo sapiens, UniProt O00254); details: comparison with PAR4; read-out: half-maximal concentration (EC50) for PAR3; cited from earlier work
T5 sequence (O00254 22-374): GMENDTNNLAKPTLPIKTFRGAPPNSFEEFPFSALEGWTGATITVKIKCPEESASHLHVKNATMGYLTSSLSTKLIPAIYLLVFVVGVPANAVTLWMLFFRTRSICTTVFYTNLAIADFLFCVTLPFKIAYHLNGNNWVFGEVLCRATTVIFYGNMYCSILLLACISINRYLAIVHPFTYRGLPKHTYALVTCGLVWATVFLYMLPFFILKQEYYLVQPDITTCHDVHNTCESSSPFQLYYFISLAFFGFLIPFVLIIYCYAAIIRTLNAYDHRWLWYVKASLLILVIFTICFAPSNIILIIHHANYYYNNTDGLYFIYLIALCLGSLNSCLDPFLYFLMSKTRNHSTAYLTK

[1] = PAR4-transfected COS cells, read-out: half-maximal concentration (EC50), phosphoinositide hydrolysis with PAR4

Molecule: GYPGQV [GYPGQV]
EC50 (PAR4): ~100000 nM

Molecule: SFLLRN [reference compound]
activity toward PAR4 of PAR1 activating peptide (PAR4; concentration effective for PAR1 activation): no activity

Molecule: elastase
activity against PAR4 (other proteases) (PAR4): failed to activate

Molecule: thrombin
EC50 (PAR4; [1]): 5 nM
response of PAR4-transfected COS cells (phosphatidylinositol 4,5 diphosphate hydrolysis) (PAR4): did respond
EC50 (PAR1): ~0.2 nM
response of putative cleavage site mutant PAR4 (R47A) to protease (PAR4 (R47A)): failed to respond; also recorded: only activate the wild-type PAR4
effect of R68A mutation on PAR4 activation by protease (PAR4 (R68A)): no effect
EC50 (PAR3): ~0.2 nM

B1: plasmin: arginine/lysine-specific serine protease (protein, UniProt P00747 20-580; P00747 581-810, looked up)
Plasmin heavy chain A: EPLDDYVNTQGASLFSVTKKQLGAGSIEECAAKCEEDEEFTCRAFQYHSKEQQCVIMAENRKSSIIIRMRDVVLFEKKVYLSECKTGNGKNYRGTMSKTKNGITCQKWSSTSPHRPRFSPATHPSEGLEENYCRNPDNDPQGPWCYTTDPEKRYDYCDILECEEECMHCSGENYDGKISKTMSGLECQAWDSQSPHAHGYIPSKFPNKNLKKNYCRNPDRELRPWCFTTDPNKRWELCDIPRCTTPPPSSGPTYQCLKGTGENYRGNVAVTVSGHTCQHWSAQTPHTHNRTPENFPCKNLDENYCRNPDGKRAPWCHTTNSQVRWEYCKIPSCDSSPVSTEQLAPTAPPELTPVVQDCYHGDGQSYRGTSSTTTTGKKCQSWSSMTPHRHQKTPENYPNAGLTMNYCRNPDADKGPWCFTTDPSVRWEYCNLKKCSGTEASVVAPPPVVLLPDVETPSEEDCMFGNGKGYRGKRATTVTGTPCQDWAAQEPHRHSIFTPETNPRAGLEKNYCRNPDGDVGGPWCYTTNPRKLYDYCDVPQCAAPSFDCGKPQVEPKKCPGR
Plasmin light chain B: VVGGCVAHPHSWPWQVSLRTRFGMHFCGGTLISPEWVLTAAHCLEKSPRPSSYKVILGAHQEVNLEPHVQEIEVSRLFLEPTRKDIALLKLSSPAVITDKVIPACLPSPNYVVADRTECFITGWGETQGTFGAGLLKEAQLPVIENKVCNRYEFLNGRVQSTELCAGHLAGGTDSCQGDSGGPLVCFEKDKYILQGVTSWGLGCARPNKPGVYVRVSRFVTWIEGVMRNN
modifications: Plasmin
notes: arginine/lysine-specific serine protease
activity against PAR4 (other proteases) (PAR4): little or no activity

Second part, led by results:

activity against PAR4 (other proteases) (PAR4): failed to activate
Molecule: Chymotrypsin

EC50 (PAR4; [1]): 5 nM
response of PAR4-transfected COS cells (phosphatidylinositol 4,5 diphosphate hydrolysis) (PAR4): did respond
effect of R68A mutation on PAR4 activation by protease (PAR4 (R68A)): no effect
Molecule: trypsin: serine protease, activator of PAR4
response of putative cleavage site mutant PAR4 (R47A) to protease (PAR4 (R47A)): failed to respond; also recorded: only activate the wild-type PAR4

activity against PAR4 (other proteases) (PAR4): little or no activity
Molecule: urokinase
